According to publication PMC10108821, “Three tyrosine kinase inhibitors cause cardiotoxicity by inducing endoplasmic reticulum stress and inflammation in cardiomyocytes” (BMC Medicine, 2023):
Read-outs that look alike come from different tables or passages of the source.

Key:
patients = conditions: cited from earlier work
NRCMs [1] = test: Seahorse assay: oxygen consumption and extracellular acidification; format: cell-based, rat; conditions: 24 h; fixed doses: 10 µM, crizotinib and ponatinib 3.16 µM
ER stress genes in NRCMs = test: qRT-PCR of ER stress genes in NRCMs; format: cell-based, rat; conditions: afatinib 5.62 µM, sorafenib 3.16 μM, ponatinib 1.78 μM
Sprague-Dawley rats = test: Rat gavage cardiotoxicity model: survival, heart and body weight; conditions: day 7; ponatinib 15 mg/kg, sorafenib 50 mg/kg gavage once daily
Method: All experiments were performed in accordance with relevant guidelines and regulations approved by the Institutional Animal Care and Use Committee (IACUC) at Peking University Health Science Center. Sprague-Dawley rats (170-200g) were purchased from Beijing Vital River Laboratory Animal Technology. Forty-eight male rats were randomly divided into six groups, with 8 animals per group. […] The gavage was done daily starting at 10am. At the end of the experiments, rats were euthanized by CO2 about 5~6 hours after the last gavage, and then hearts were harvested for further study. Left ventricular muscle was dissected and divided into 3 parts with similar size, one of which was used for RNA extraction and qRT-PCR.

Cor.4U hiPSC-CMs [2] = test system: Cor.4U hiPSC-CMs; parameters: method as in GSE114686; conditions: ref GSE114686, cited from earlier work
Cor.4U hiPSC-CMs [3] = test: ATP level (CellTiter-Glo) in hiPSC-CMs; format: cell-based, human
TNNT2 protein in NRCMs = test: TNNT2 immunofluorescence; format: cell-based, rat; conditions: 24 h; 10 µM afatinib, 10 µM sorafenib, 5.62 µM ponatinib
Method: Cells cultured in multi-well plates were fixed with 4% paraformaldehyde (Sigma) for 30 minutes at room temperature, washed 3 times with PBS, and permeabilized with 0.2% Tritonx100 (Applygen) for 15 minutes. Then, cells were blocked with 5% normal goat serum (Bioss) for 1-hr at room temperature and probed with primary antibodies against TNNT2 (proteintech) or NF-κB (CST) overnight at 4°C. Secondary antibodies (Jackson Immuno Research Laboratories, Inc.) and 0.4ug/mL DAPI (Coolaber) were applied at room temperature for 1 hour. Immunofluorescence pictures were taken by ImageXpress Micro Confocal-AWES (Molecular Devices).

NRCMs [4] = test: Mitochondrial membrane potential by TMRE staining; format: cell-based, rat; conditions: 24 h of treatment
From the text: Fig S3 Mitochondrial membrane potential changes in response to TKIs. (A) Raw images of TMRE staining in NRCMs treated with different drugs. (B) Fold changes in mitochondrial membrane potential at different treatments.

NRCMs [5] = test: Calcium staining with Calbryte 520 AM; format: cell-based, rat; conditions: 0.5 and 1 h; 10 µM afatinib, 10 µM sorafenib, 5.62 µM ponatinib

SMILES: CNC(=O)c1cc(Oc2ccc(NC(=O)Nc3ccc(Cl)c(C(F)(F)F)c3)cc2)ccn1 [sorafenib]
- myocardial ischemia (patients; clinical trials): 2.7–3%
- level of cardiotoxicity based on literature reports (patients; ref Table S1, 2, 4, 26–36): high-levels of cardiotoxicity
- basal oxygen consumption rate (OCR) (NRCMs [1]): significant inhibition
- maximal, spare and non-mitochondrial oxygen consumption (NRCMs [1]): inhibited maximal, spare, and non-mitochondrial oxygen consumption significantly
- temporal activation of ER stress genes, 72 versus 24 h (ER stress genes in NRCMs): most gene targets of ER stress were downregulated over time
- heart or body weight (Sprague-Dawley rats): not changed
- CHAC1 logFC (Cor.4U hiPSC-CMs [2]; Sorafenib 3.16 µM 168 hours): 3.62
- DDIT3 logFC (Cor.4U hiPSC-CMs [2]; Sorafenib 3.16 µM 168 hours): 4.28
- DNAJB9 logFC (Cor.4U hiPSC-CMs [2]; Sorafenib 3.16 µM 168 hours): 1
- TRIB3 logFC (Cor.4U hiPSC-CMs [2]; Sorafenib 3.16 µM 168 hours): 5.51
- XBP1 logFC (Cor.4U hiPSC-CMs [2]; Sorafenib 3.16 µM 168 hours): 1.42
- CHAC1 logFC (Cor.4U hiPSC-CMs [2]; Sorafenib 10 µM 24 hours): 4.55
- DDIT3 logFC (Cor.4U hiPSC-CMs [2]; Sorafenib 10 µM 24 hours): 4.73
- DNAJB9 logFC (Cor.4U hiPSC-CMs [2]; Sorafenib 10 µM 24 hours): 1.43
- TRIB3 logFC (Cor.4U hiPSC-CMs [2]; Sorafenib 10 µM 24 hours): 5.56
- XBP1 logFC (Cor.4U hiPSC-CMs [2]; Sorafenib 10 µM 24 hours): 1.79
- effect on ATP levels (Cor.4U hiPSC-CMs [3]; 0.32 to 10 µM, day 1 to day 5): slight increase in the ATP level at day 1, but decrease at day 5
- EC50 (ATP) compared with maximal plasma concentration (Cmax) (Cor.4U hiPSC-CMs [3]; day 5): lower than or similar to their maximal plasma concentrations (Cmax)
- TNNT2 protein (cardiac Troponin T2) (TNNT2 protein in NRCMs): had the most effect
- mitochondrial membrane potential (NRCMs [4]): decreased the mitochondrial membrane potential significantly
- cytosolic calcium concentration (NRCMs [5]): significant cytosolic overload of Ca^2+
